The source of these data is paper PMC8092326 (mBio, 2021).

In data set [1] the test system is SARS-CoV-2 infection of Vero-E6 cells.
Data set [2] has as its target T1, RBD-mimic1 peptide-ACE2 interaction (Homo sapiens, UniProt Q9BYF1).
T1 construct: purchased Assay Matrix; R&D Systems (ACE2); Mimotopes, Australia (peptide)
Nature of the data set: SPR competition (ABA injection) between compound and RBD-mimic1 peptide for immobilized ACE2. Type of data set: binding.

A further data set concerns Vero-E6 cells. The settings on record: at 1,000 μM.
For a further data set, the target named is T2, human ACE2 (Homo sapiens, UniProt Q9BYF1).
T2 construct: purchased Assay Matrix; R&D Systems
T2 sequence (Q9BYF1 18-805): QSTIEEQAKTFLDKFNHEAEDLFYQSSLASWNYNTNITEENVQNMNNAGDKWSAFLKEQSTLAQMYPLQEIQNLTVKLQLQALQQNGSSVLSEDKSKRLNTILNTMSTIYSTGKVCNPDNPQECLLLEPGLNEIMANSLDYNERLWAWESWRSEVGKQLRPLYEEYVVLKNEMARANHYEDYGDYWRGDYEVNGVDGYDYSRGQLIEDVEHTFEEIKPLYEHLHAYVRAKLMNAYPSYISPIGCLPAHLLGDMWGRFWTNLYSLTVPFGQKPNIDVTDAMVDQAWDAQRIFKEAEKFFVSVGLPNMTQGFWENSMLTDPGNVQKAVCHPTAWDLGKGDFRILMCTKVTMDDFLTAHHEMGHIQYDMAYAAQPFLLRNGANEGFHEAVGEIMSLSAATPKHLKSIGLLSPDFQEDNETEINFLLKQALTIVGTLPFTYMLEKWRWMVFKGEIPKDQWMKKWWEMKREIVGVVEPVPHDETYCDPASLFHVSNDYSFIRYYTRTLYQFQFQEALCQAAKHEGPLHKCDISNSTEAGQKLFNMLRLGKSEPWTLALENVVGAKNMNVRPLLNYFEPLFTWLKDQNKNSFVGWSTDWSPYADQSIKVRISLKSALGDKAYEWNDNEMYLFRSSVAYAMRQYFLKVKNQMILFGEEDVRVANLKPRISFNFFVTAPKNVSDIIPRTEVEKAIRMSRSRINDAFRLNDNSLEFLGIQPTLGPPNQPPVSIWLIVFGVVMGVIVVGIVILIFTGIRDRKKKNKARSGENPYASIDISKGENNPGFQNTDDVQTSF
Briefly: biochemical. The settings on record: immobilized recombinant human ACE2; ± one SD; read-out: KD (nM) determined by SPR. Type of data set: binding.

Another data set has as its target T3, SARS-CoV-2 spike protein (Severe acute respiratory syndrome coronavirus 2, UniProt P0DTC2).
T3 construct: made in house; host or cells: HEK 293 cells
Briefly: biochemical. It counts as binding.

For data set [3], the system named is SARS-CoV-2 infection of Vero-E6 cells. Nature of the data set: Dose-response inhibition of SARS-CoV-2 infection of Vero-E6 cells (24 h, in situ ELISA). It counts as cell-based. The settings on record: Severe acute respiratory syndrome coronavirus 2, Vero C1008; 24 h infection, Vero-E6, MOI 0.12; read-out: IC50 (μM) Mean ± SD.
The target of data set [4] is human ACE2-VLP spike protein interaction (UniProt P0DTC2+Q9BYF1). It counts as binding, SARS-CoV-2.
human ACE2-VLP spike protein interaction, sequence (Q9BYF1 18-740, one chain of several): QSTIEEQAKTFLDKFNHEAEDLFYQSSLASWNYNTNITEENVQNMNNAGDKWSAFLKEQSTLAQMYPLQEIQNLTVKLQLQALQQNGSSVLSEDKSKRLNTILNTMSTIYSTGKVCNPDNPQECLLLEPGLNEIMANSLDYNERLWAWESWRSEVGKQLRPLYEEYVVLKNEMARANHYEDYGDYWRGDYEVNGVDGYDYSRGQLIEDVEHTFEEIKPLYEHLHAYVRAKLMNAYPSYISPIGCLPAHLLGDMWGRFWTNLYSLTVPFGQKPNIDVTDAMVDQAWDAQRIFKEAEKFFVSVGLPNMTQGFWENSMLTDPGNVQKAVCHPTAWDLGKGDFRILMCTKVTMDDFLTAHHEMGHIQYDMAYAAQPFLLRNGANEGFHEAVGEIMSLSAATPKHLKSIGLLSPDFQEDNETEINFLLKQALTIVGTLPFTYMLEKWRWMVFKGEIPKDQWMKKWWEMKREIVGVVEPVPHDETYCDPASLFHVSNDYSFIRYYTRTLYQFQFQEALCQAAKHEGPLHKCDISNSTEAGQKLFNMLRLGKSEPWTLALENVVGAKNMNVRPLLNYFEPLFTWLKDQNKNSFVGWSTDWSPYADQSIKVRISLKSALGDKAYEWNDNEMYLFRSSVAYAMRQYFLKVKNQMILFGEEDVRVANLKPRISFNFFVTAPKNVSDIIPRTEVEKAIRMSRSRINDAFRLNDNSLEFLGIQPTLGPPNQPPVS
For another data set, the system named is human albumin. The following applies: cited from earlier work.
The next data set in a line: in vitro. The following applies: African green monkey.

Molecules are shown by their SMILES. “And” between values parts separate entries of the source, which are not always exact repeats. Equal values may be shown once.

T1 sequence (Q9BYF1 18-740 limits assumed): as the sequence (Q9BYF1 18-740, one chain of several) above

On to `Cc1cc(-c2ccc(/N=N/c3ccc4c(S(=O)(=O)O)cc(S(=O)(=O)O)c(N)c4c3O)c(C)c2)ccc1/N=N/c1ccc2c(S(=O)(=O)O)cc(S(=O)(=O)O)c(N)c2c1O` [Evans blue], for which, in [1], the “Cytotoxicity in screening at the highest concentration tested” value is “no apparent cytotoxicity” and the “Screening result at the highest concentration tested” value is “active”. Also, the “Inhibition of the RBD-mimic1 peptide-ACE2 interaction (in words)” value in [2] (1:1 ratio at 1 μM) is “complete inhibition”. For the same compound, the inhibition at 1 µM in data set [2] (read-out: 1:1 competition between compound vs RBD-mimic1 peptide at 1 μM) was found to be 99.8%. Further, the “Cytotoxicity toward Vero-E6 cells” value in the data set on Vero-E6 cells was “no cytotoxicity”. The Kd at human ACE2 was 1.6 nM and 1.63 nM. Also, the “Initial SPR screening for binding to the VLP spike protein” value on SARS-CoV-2 spike protein was “binding”. Besides, the IC50 in [3] was found to be 28.1 ± 1.2 µM. Also, in data set [4], the “1:1 Competition between compound vs CoV2 VLP” value is reported as 98.9% ± 6.43 and the “Blocking (%)” value amounted to 78.2 ± 6.3%. For the same compound, in the data set on human albumin, the “Affinity for human albumin” value was “low μM range”. In the data set “in vitro”, this compound gave a CC50 greater than 1000 µM.
